Source: patent US8906829B2, “Synergistic algicidal compositions including hydrazone derivatives and copper” (Dow AgroSciences LLC, priority 2010, dated 2014)

How the values were obtained:
[1] = test system: C. reinhardtii CC-1928; test: Effect of copper on activity of hydrazones: in vitro growth inhibition of C. reinhardtii in TAP Cu minus / TAP Cu plus medium (Example 10); type: cell-based, Chlamydomonas reinhardtii; settings: test compound 1 μg/mL, 48 h; for inhibition of growth at 1 µg/mL: Chlamydomonas reinhardtii, TAP Cu minus medium, read-out: % Inhn. Minus Copper Observed; for % Inhn. Plus Copper Observed: TAP Cu plus medium (CuCl2)
Experimental: In vitro toxicity assays against C. reinhardtii CC-1928 (wild type mt+137c green in dark subclone) obtained from the Chlamydomonas Resource Center at Duke University were conducted using TAP liquid growth medium described by Gorman and Levine Proc. Natl. Acad. Sci. USA 1965, 54, 1665-1669 except that CuSO4.5H2O, normally included as a component of Hutner's trace element stock solution (Hutner et al. Proc. Am. Philos. Soc. 1950, 94, 152-170), was omitted. The TAP medium lacking Cu (TAP Cu minus) was prepared by adding 400 mg NH4Cl, 10 mL of 100× Tris-Acetate (242 g Tris-base and 100 mL glacial acetic acid in 1000 mL milli Q water), and 8.3 mL of 120.5× phosphate buffer (14.34 g K2HPO4 and 7.26 g KH2PO4 in 1000 mL milli Q water) to milli Q water to make a total volume of 1 liter. The medium was treated with 0.5 g Chelex 100 resin (Bio-Rad Analytical grade, 50-100 mesh, sodium form, cat#142-2822) by stirring at room temperature for 1 hour. 900 mL were decanted and 45.9 mg of CaCl2.2H2O, 90 mg of MgSO4.7H2O and 0.9 mL Hutner's trace elements lacking CuSO4.5H2O were added and the solution was filter-sterilized. Medium containing copper (TAP Cu plus) was prepared by adding CuCl2.2H2O to the TAP Cu minus medium at 20 μM. Test compounds were dissolved in dimethylsulfoxide (DMSO) at 2 mg/mL then dilutions in TAP Cu minus and TAP Cu plus media were prepared in sterilized microcentrifuge tubes at 2 μg/mL. 100 μL aliquots of diluted compound were dispensed into flat-bottomed 96-well microtiter plates. C. reinhardtii was maintained under 12 h of light on TAP agar plates at 18° C. A loopful of cells was added to 50 mL of TAP Cu minus medium and the culture incubated with shaking at 200 rpm at 27° C. for 24 h. The culture (10 to 20 mL aliquot) was centrifuged in a bench centrifuge at 2000 rpm for 2 min. The resulting cell pellet was resuspended in 5 mL sterile milli Q water (which had been treated with Chelex 100 resin using 0.5 g resin per liter of water by stirring at room temperature for 1 h), and recentrifuged. The cells were resuspended in TAP Cu minus medium, and the suspension adjusted to 2×10^5 spores per mL. Microtiter plates containing compounds as described above were inoculated with 100 μL of this cell suspension and the plates incubated at 27° C. for 48 h before assessing algal growth by measuring light scattering in a NepheloStar plate-reader. Growth inhibition was determined by comparing growth in the presence of test compound with growth in control wells lacking test compound. Results for growth inhibition by test compounds at 1 μg/mL in TAP Cu plus medium (% Inhn Plus Copper Observed) were compared with predicted values (% Inhn Plus Copper Predicted) that were calculated using the formula set forth by S. R. Colby in Weeds 1967, 15, 20-22 based on results obtained for the same compounds in TAP Cu minus medium (% Inhn Minus Copper Observed). […] Results illustrate that hydrazones and copper produce a synergistic algicidal effect towards C. reinhardtii.

[2] = test system: Synechocystis sp. strain 6803; test: Effect of copper on activity of hydrazones: in vitro growth inhibition of Synechocystis in BG-11 Cu minus / Cu plus medium (Example 11); type: cell-based; settings: 72 h; for % Inhn. Plus Copper Observed: BG-11 Cu plus medium
Experimental: In vitro toxicity assays against the cyanobacterium (blue-green alga) Synechocystis sp. strain 6803 were conducted using BG-11 medium except that copper micronutrient, normally included as CuSO4.5H2O, was omitted. The medium, termed BG-11 Cu minus, was prepared by dissolving 1.5 g NaNO3, 40 mg K2HPO4, 6 mg citric acid, 1 mg Na2EDTA and 20 mg Na2CO3 in 1 liter of milli Q water and treating the solution with 0.5 g Chelex 100 resin (Bio-Rad Analytical grade, 50-100 mesh, sodium form, cat#142-2822) by stifling at room temperature for 1 h. 900 mL were decanted and 67.5 mg MgSO4.7H2O, 32.4 mg […], 5.4 mg ferric ammonium citrate and 0.9 mL trace metal mix A5 without copper (2.86 g H3BO3, 1.81 g MnCl2.4H2O, 222 mg ZnSO4.7H2O, 390 mg Na2MoO4.2H2O and Co(NO3)2.6H2O in 1 L Milli Q water) was added. The pH was adjusted to 7.1 and the medium was filter-sterilized. Medium containing copper (BG-11 Cu plus) was prepared by adding CuCl2.2H2O to the BG-11 Cu minus medium at 0.2 μM. Test compounds were dissolved in dimethylsulfoxide (DMSO) at 2 mg/mL then appropriate dilutions in BG-11 Cu minus and BG-11 Cu plus media were prepared in sterilized microcentrifuge tubes. 100 μL aliquots were dispensed into flat-bottomed 96-well microtiter plates. Synechocystis was maintained under 24 h of light on BG-11 agar plates at 27° C. A loopful of cells was added to 50 mL of BG-11 Cu minus growth medium and the culture was incubated with shaking at 200 rpm at 27° C. for 24 h. The culture (10 to 20 mL aliquot) was centrifuged in a bench centrifuge at 2400 rpm for 2 min. The resulting cell pellet was resuspended in 5 mL sterile milli Q water (which had been treated with Chelex 100 resin using 0.5 g resin per liter of water by stirring at room temperature for 1 h), and recentrifuged. The cells were resuspended in BG-11 Cu minus medium, and the suspension adjusted to 4×10^5 spores per mL. Microtiter plates containing compounds as described above were inoculated with 100 μL of this cell suspension and the plates incubated at 27° C. for 72 h before assessing algal growth by measuring light scattering in a NepheloStar plate reader. Growth inhibition was determined by comparing growth in the presence of test compound with growth in control wells lacking test compound. Results for growth inhibition by test compounds in BG-11 Cu plus medium (% Inhn Plus Copper Observed) were compared with predicted values (% Inhn Plus Copper Predicted) that were calculated using the formula set forth by S. R. Colby in Weeds 1967, 15, 20-22 based on-results obtained for the same compounds in BG-11 Cu minus medium (% Inhn Minus Copper Observed) and the inhibition attributed to copper chloride alone, as determined by comparing growth in copper-minus and copper-plus media without any test compound across experiments. Results illustrate that hydrazones and copper produce a synergistic algicidal effect towards Synechocystis.

[3] = Synechocystis, Test Concn. 0.05 μg/mL, BG-11 Cu minus medium, read-out: % Inhn. Minus Copper Observed
[4] = Synechocystis, Test Concn. 0.00625 μg/mL, BG-11 Cu minus medium, read-out: % Inhn. Minus Copper Observed

Row | SMILES | inhibition of growth at 1 µg/mL [1] [%] | % Inhn. Plus Copper Observed [1] [%] | melting point [°C] | inhibition of growth at 0.05 µg/mL [2, 3] [%] | % Inhn. Plus Copper Observed ([2]; Test Concn. 0.05 μg/mL) [%] | inhibition of growth at 0.00625 µg/mL [2, 4] [%] | % Inhn. Plus Copper Observed ([2]; Test Concn. 0.00625 μg/mL) [%] | inhibition of growth at 0.0125 µg/mL ([2]; Synechocystis, Test Concn. 0.0125 μg/mL, BG-11 Cu minus medium, read-out: % Inhn. Minus Copper Observed) [%] | % Inhn. Plus Copper Observed ([2]; Test Concn. 0.0125 μg/mL) [%]
1 | C/C(=N\NC(=O)c1ccccc1)c1ccccc1O [Compound 2] | 10 | 95 | 185 to 187 | -8 | 97 |  |  |  | 
2 | O=C(N/N=C/c1cc(Cl)ccc1O)c1ccccc1 [Compound 3] | 25 | 62 |  | -17 | 96 |  |  |  | 
3 | O=C(N/N=C/c1cc(Cl)cc(Cl)c1O)c1ccc(F)cc1 [Compound 4] | 12 | 92 |  | -14 | 96 |  |  |  | 
4 | C/C(=N\NC(=O)c1ccccc1Br)c1cc(Cl)cc(Cl)c1O [Compound 5] | 26 | 95 | 220 to 222 | -10 | 91 |  |  |  | 
5 | O=C(N/N=C/c1cc(Cl)cc(Cl)c1O)c1cccc(Cl)c1 [Compound 8] | 15 | 92 |  | 62 | 92 |  |  |  | 
6 | O=C(N/N=C/c1cc(Cl)cc(Cl)c1O)c1ccc(Br)cc1 [Compound 9] | 7 | 90 |  |  |  | 15 | 74 |  | 
7 | O=C(N/N=C/c1cc(Cl)cc(Cl)c1O)c1ccc2ccccc2c1 [Compound 10] | 24 | 93 | 215 to 217 | 44 | 95 |  |  |  | 
8 | O=C(N/N=C/c1cc(Br)cc(Br)c1O)c1ccccc1 [Compound 11] | 31 | 96 |  | 50 | 97 |  |  |  | 
9 | C/C(=N\NC(=O)Cc1ccccc1)c1cc(Cl)cc(Cl)c1O [Compound 13] | 17 | 96 | 199 to 204 | 22 | 96 |  |  |  | 
10 | Cc1ccccc1C(=O)N/N=C/c1cc(Cl)cc(Br)c1O [Compound 16] | -3 | 95 |  | -5 | 94 |  |  |  | 
11 | O=C(N/N=C/c1cc(Cl)cc(Br)c1O)c1cccc(Br)c1 [Compound 17] | 32 | 83 |  |  |  | 59 | 72 |  | 
12 | COc1cc(Br)cc(/C=N/NC(=O)c2cccc(Br)c2)c1O [Compound 19] | 12 | 52 |  | -18 | 43 |  |  |  | 
13 | COc1cc(Br)cc(/C=N/NC(=O)c2ccc(C)cc2)c1O [Compound 20] | -6 | 94 |  | 9 | 86 |  |  |  | 
14 | O=C(N/N=C/c1cc(Cl)cc(Cl)c1O)c1cccc(C(F)(F)F)c1 [Compound 22] | -14 | 96 | 165 to 169 | 48 | 94 |  |  |  | 
15 | C/C(=N\NC(=O)c1ccc(Cl)cc1)c1cccc([N+](=O)[O-])c1O [Compound 23] | -37 | 89 | 241 to 251 |  |  |  |  | 27 | 92
16 | O=C(N/N=C/c1cc(C(F)(F)F)cc(Cl)c1O)c1ccccc1 [Compound 24] | -2 | 90 | 216 to 222 | 45 | 93 |  |  |  | 
17 | O=C(N/N=C/c1cc(C(F)(F)F)cc(Cl)c1O)c1cccc(F)c1 [Compound 28] | 12 | 97 | 210 to 212 | 13 | 96 |  |  |  | 
18 | O=C(N/N=C/c1cc(C(F)(F)F)cc(Cl)c1O)c1ccc(F)cc1 [Compound 29] | 16 | 96 | 200 to 202 | 11 | 96 |  |  |  | 
19 | O=C(N/N=C/c1cc(C(F)(F)F)cc(Cl)c1O)c1ccccc1O [Compound 30] | 29 | 92 | 258 to 260 | 0 | 92 |  |  |  | 
20 | O=C(N/N=C/c1c(O)cccc1Cl)c1ccc([N+](=O)[O-])cc1 [Compound 49] | 33 | 93 | > 300 |  |  |  |  |  | 
21 | O=C(N/N=C/c1c(O)cccc1Cl)c1cccc(F)c1 [Compound 69] |  |  | 257 to 259 |  |  |  |  |  | 
22 | O=C(N/N=C/c1c(O)cccc1Cl)c1ccc(Cl)cc1 [Compound 70, 4-chlorobenzoic acid [1-(2-chloro-6-hydroxyphenyl)-methylidene]-hydrazide] |  |  | 273 to 277 |  |  |  |  |  | 
23 | O=C(N/N=C/c1cc(C(F)(F)F)ccc1O)c1ccccc1O [Compound 71] |  |  | 277 to 281 |  |  |  |  |  | 
